Results: PMC8157947, “Peptidic boronic acids are potent cell-permeable inhibitors of the malaria parasite egress serine protease SUB1” (Proceedings of the National Academy of Sciences of the …, 2021)
Values joined by “and” are separate entries in the source; they are usually repeats but may differ in a detail not shown here. Equal values may be shown once. “Also recorded” adds a separate entry of the source. Read-outs that look alike come from different tables or passages of the source. Values belong to the molecule of their own block, whether it stands above or below them.

Experiments:
[1] = target: T1, recombinant PfSUB1 (rPfSUB1) (Plasmodium falciparum, UniProt Q8I0V0); experiment: rPfSUB1 fluorogenic peptide substrate cleavage inhibition assay; assay type: biochemical
T1 construct: Chymotrypsin-treated rPfSUB1 (expressed and purified as described previously); made in house
T1 sequence (Q8I0V0 218-688): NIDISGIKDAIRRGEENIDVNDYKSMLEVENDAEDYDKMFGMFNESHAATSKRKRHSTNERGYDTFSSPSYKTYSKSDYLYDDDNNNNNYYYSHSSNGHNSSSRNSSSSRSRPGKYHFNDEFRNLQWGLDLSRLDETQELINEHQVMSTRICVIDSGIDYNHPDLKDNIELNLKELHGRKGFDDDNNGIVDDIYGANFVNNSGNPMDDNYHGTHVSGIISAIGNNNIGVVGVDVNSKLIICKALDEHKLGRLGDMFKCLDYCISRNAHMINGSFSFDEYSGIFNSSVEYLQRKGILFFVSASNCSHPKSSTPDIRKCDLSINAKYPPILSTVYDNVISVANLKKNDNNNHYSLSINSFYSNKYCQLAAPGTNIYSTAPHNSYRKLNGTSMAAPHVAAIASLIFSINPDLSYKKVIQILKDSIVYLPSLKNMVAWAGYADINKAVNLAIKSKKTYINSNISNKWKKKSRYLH
Excerpt: We previously described the development of a fluorescence-based in vitro assay suitable for the evaluation of substrate-based PfSUB1 inhibitors, using recombinant PfSUB1 (rPfSUB1) and fluorogenic peptide substrates based on cleavage sites within endogenous protein substrates of PfSUB1 ([13], [21]). […] This was perhaps unsurprising due to the high molecular mass and polar nature of these compounds, including the presence of a carboxylic acid moiety that was designed to mimic endogenous PfSUB1 protein substrates by interacting with the basic S’ surface of the PfSUB1 active-site cleft ([16]). Collectively, these features likely rendered the compounds poorly membrane penetrant.
Fluorescence of this peptide is quenched by rhodamine dimerization in the intact substrate but increases upon cleavage at the internal Q-D bond. Chymotrypsin-treated rPfSUB1 (expressed and purified as described previously ([16]) was stored at −80 °C as a 228 U/mL stock in 20 mM Tris–HCl pH 8.2, 150 mM NaCl, 10% glycerol, and diluted for use (1:500 or 1:600) in reaction buffer (20 mM Tris–HCl pH 8.2, 150 mM NaCl, 12 mM CaCl2, 25 mM CHAPS). Peptidic boronic acid inhibitors were dissolved in 100% DMSO at 10 or 20 mM, then further diluted in DMSO to generate stock solutions ranging from 500 to 0.01 μM and then used diluted 1:100 in the enzyme reactions. All reactions were performed in wells of white 96-well microwell plates (Nunc); 50 μL diluted rPfSUB1 was preincubated for 5 min with 1 μL each of the serially diluted boronic acid inhibitors, followed by addition of 50 μL substrate solution (0.1 μM final). Subsequent fluorescence increase was continuously monitored using a SpectraMax M5e plate reader and SoftMax Pro-6.3 software, with readings taken every 5 min for 60 min using excitation and emission values of 552 and 580 nm, respectively. […] All experiments were performed in duplicate.

[2] = test system: P. falciparum 3D7 schizonts; experiment: Short-term egress/invasion assay, ring formation by flow cytometry; assay type: cell-based, Plasmodium falciparum; conditions: for EC50: Plasmodium falciparum, mature 3D7 schizonts with RBCs, 4 h, flow cytometry
Procedure: For this, P. falciparum cultures containing synchronous, highly mature schizonts were supplemented with compounds 3b, 3e, 3i, and 3j at a range of dilutions, then allowed to undergo egress and invasion for just 4 h in the continued presence of the compounds, before assessing formation of newly invaded “ring” stage parasites by flow cytometry.
(§1) Short-term egress, invasion, and washout assays were performed essentially as described previously ([27], [28], [42]). Briefly, highly synchronous mature Percoll-enriched schizonts with or without added fresh RBCs (∼5% parasitaemia final) were incubated with compounds under test or vehicle only (DMSO, 1% vol/vol). For washout assays, schizonts were treated with C2 or various concentrations of inhibitor 3j for 1 to 4 h, then washed extensively (at least four times) prior to addition to fresh RBCs where required. After incubation at 37 °C for just 1 to 4 h (or overnight for invasion assays) to allow schizont rupture, cells were pelleted. Clarified culture supernatants were assessed for extent of hemoglobin release (a measure of schizont rupture) by absorption spectroscopy at 415 nm as described previously ([28]) or analyzed by Western blot using antibodies against SERA5 ([7], [11]). To quantify generation of new rings, samples of the cultures were fixed with 4% paraformaldehyde/0.02% glutaraldehyde and stained with SYBR Green I (Life Technologies) and then analyzed by flow cytometry on a BD FACSVerse using BD FACSuite software. Data were analyzed using FlowJo software. All cultures were also routinely analyzed by microscopic examination of Giemsa-stained thin films to visually assess parasite morphology.

[3] = test system: asexual blood-stage P. falciparum (clone 3D7); experiment: SYBR Green I parasite growth assay; assay type: cell-based, Plasmodium falciparum; conditions: for EC50: Plasmodium falciparum, 3D7, 96 h, two erythrocytic growth cycles, SYBR Green I
Procedure: The impact of the peptidic boronic acids on replication of asexual blood-stage P. falciparum (clone 3D7) was assessed using a SYBR Green I assay, essentially as described by Smilkstein et al. ([22]). Briefly, test compounds (dissolved in dimethyl sulfoxide [DMSO] at concentrations ranging from 4 mM to 5 μM) were added in triplicate to wells of flat bottomed, 96-well microtitre plates (1 μL per well). Wells were then supplemented with 100 μL per well of a P. falciparum parasite culture at 0.1% parasitaemia, 1% hematocrit. Each assay plate also included DMSO-only control wells (1% vol/vol), as well as additional control wells containing uninfected RBCs only. Plates were incubated in sealed, humidified gassed chambers at 37 °C for 96 h to allow the parasites to undergo two entire cycles of erythrocytic growth. Wells were then supplemented with 100 μL 1:5,000 dilution of stock SYBR Green I (Life Technologies, catalog no. S7563) diluted in 20 mM Tris HCl pH 7.5, 5 mM EDTA, 0.008% (weight/vol) saponin, 0.08% (vol/vol) Triton ×100. Plates were agitated to mix, incubated for a further 1 h in the dark at room temperature, then 150 μL samples from each well transferred to a fresh white microwell plate and fluorescence quantified using a SpectraMax M5e plate reader and SoftMax Pro-6.3 software (Ex 485 nm/Em 530 nm). IC50 values were determined from dose–response curves obtained after subtracting background fluorescence values (obtained from the RBC-only wells) from all experimental readings.

[4] = set-up: method as in PMID 30117017; conditions: cited from earlier work
[5] = test system: P. falciparum schizonts; experiment: Ring formation after pretreatment of schizonts and washout; assay type: cell-based, Plasmodium falciparum; conditions: pretreated schizonts washed, fresh RBCs, assessed at 24 h; 3j 10 μM, C2 1 μM
Procedure: as §1

[6] = test system: PfSUB1-mediated proteolytic processing of SERA5; experiment: Western blot of SERA5 processing after washout; assay type: cell-based, Plasmodium falciparum; conditions: 4 h pretreatment then washout
Excerpt: To seek unambiguous confirmation that PfSUB1 is the intracellular target of compound 3j, we examined the effects of the compound on the PfSUB1-mediated proteolytic processing of the established endogenous PfSUB1 substrate SERA5, an abundant parasite PV protein that only becomes accessible to cleavage upon discharge of PfSUB1 into the PV in the minutes leading up to egress and is then released in a processed form into culture supernatants ([6], [11], [12]). […] It was concluded that compound 3j prevents egress and parasite proliferation through direct inhibition of intracellular PfSUB1.
Short-term egress, invasion, and washout assays were performed essentially as described previously ([27], [28], [42]). […] Clarified culture supernatants were assessed for extent of hemoglobin release (a measure of schizont rupture) by absorption spectroscopy at 415 nm as described previously ([28]) or analyzed by Western blot using antibodies against SERA5 ([7], [11]). To quantify generation of new rings, samples of the cultures were fixed with 4% paraformaldehyde/0.02% glutaraldehyde and stained with SYBR Green I (Life Technologies) and then analyzed by flow cytometry on a BD FACSVerse using BD FACSuite software. Data were analyzed using FlowJo software. All cultures were also routinely analyzed by microscopic examination of Giemsa-stained thin films to visually assess parasite morphology.

[7] = test system: P. falciparum schizonts expressing EXP2-mNeonGreen; experiment: Time-lapse video microscopy of egress after compound washout; assay type: cell-based, Plasmodium falciparum; conditions: 1 μM
[8] = target: T1, recombinant PfSUB1 (rPfSUB1); conditions: cited from earlier work
[9] = test system: asexual blood-stage P. falciparum (clone 3D7); set-up: method as in PMID 22543039, PMID 25129616; conditions: earlier work; cited from earlier work
[10] = fluorogenic peptide substrate, mean ± SD of at least three measurements, read-out: IC50 (nM) (rPfSUB1)

SMILES: CC(=O)NC(C(=O)NC(C(=O)NCC(=O)NC(C)B(O)O)C(C)O)C1CCCC1 (stereo not shown) [3b]
EC50 [2]: 12700 ± 800 nM
IC50 [1, 10]: 9.3 ± 0.5 nM
EC50 [3]: 2.3 ± 1.4 µM

SMILES: CC(C)C[C@H](NC(=O)CNC(=O)c1cc(Cl)ccc1Cl)B(O)O [ixazomib]
terminal half-life [4]: ~228 h

SMILES: CN(C)Cc1ccn2c(-c3ccnc(N)n3)c(-c3ccc(F)cc3)nc2c1 [C2, 4-[7-[(dimethylamino)methyl]-2-(4-fluorphenyl)imidazo[1,2-α]pyridine-3-yl]pyrimidin-2-amine, reference compound]
ring production after washout [5]: produced rings efficiently
SERA5 proteolytic processing [6]: blocked
time of egress initiation following washout [7]: ~6.5 min

SMILES: CC(=O)N[C@H](C(=O)N[C@H](C(=O)NCC(=O)N[C@H]1CCC(=O)OB1O)[C@@H](C)O)C1CCCC1 [3g]
IC50 [1, 10]: 18.7 ± 1.3 nM

SMILES: CCC(C)[C@H](NC(C)=O)C(=O)N[C@H](C(=O)NCC(=O)N[C@@H](C)B(O)O)[C@@H](C)O (stereo partly shown) [3a]
IC50 [1, 10]: 69.4 ± 1.2 nM
EC50 [3]: 1.8 ± 0.6 µM

SMILES: CC(=O)N[C@H](C(=O)N[C@H](C(=O)NCC(=O)NC(C)C(=O)C(=O)NCCC(=O)O)[C@@H](C)O)C(C)C (stereo partly shown) [compound 1]
IC50 ([8]; Table S1): 900 ± 200 nM
IC50 ([8]; earlier work): ~900 nM
antiparasite activity in vitro / parasite growth assay [9]: no antiparasite activity in vitro; also recorded: no activity in parasite growth assay

SMILES: CC(=O)N[C@H](C(=O)N[C@H](C(=O)NCC(=O)NC(C)C(=O)C(=O)NCCC(=O)O)[C@@H](C)O)C1CCCC1 (stereo partly shown) [2a]
IC50 ([1]; IC50(PfSUB1), Fig. 1): 400 nM
IC50 ([1]; IC50 (nM) (rPfSUB1), fluorogenic peptide substrate, mean ± SD of at least three measurements): ~370 nM and 370 nM
inhibition at 10 µM ([1]; read-out: degree of rPfSUB1 inhibition at 10 µM (%)): 97%
activity in parasite growth assay [3]: no activity in parasite growth assay

Further lines, with some results ahead:

IC50 [1, 10]: 204 ± 7.5 nM
SMILES: CC(=O)N[C@H](C(=O)N[C@H](C(=O)NCC(=O)N[C@H]1CCCOB1O)[C@@H](C)O)C1CCCC1 [3f]

IC50 [1, 10]: 54.3 ± 1.1 nM
SMILES: CC(=O)N[C@H](C(=O)N[C@H](C(=O)NCC(=O)NCB(O)O)[C@@H](C)O)C1CCCC1 [3d]
EC50 [3]: 1.9 ± 0.4 µM

EC50 [2]: 15700 ± 2500 nM
IC50 [1, 10]: 4.6 ± 0.1 nM
SMILES: CC(=O)N[C@H](C(=O)N[C@H](C(=O)NCC(=O)N[C@H]1CCOB1O)[C@@H](C)O)C1CCCC1 [3e]
EC50 [3]: 15 ± 3.6 µM

IC50 [1, 10]: 60.1 ± 2.1 nM
SMILES: CC(=O)N[C@H](C(=O)N[C@H](C(=O)NCC(=O)N[C@H](C)B(O)O)[C@@H](C)O)C1CCCC1 [3c]
EC50 [3]: 18.4 ± 1.8 µM

EC50 [2]: 2000 ± 100 nM
IC50 [1, 10]: ~7.8 nM and 7.8 nM
SMILES: CC(=O)N[C@H](C(=O)N[C@@H](C)C(=O)NCC(=O)N[C@@H](C)B(O)O)C1CCCC1 [3i]
schizont phenotype in Giemsa-stained thin films ([2]; 10 μM, 4 h incubation): arrest of unruptured schizonts with no ring formation
EC50 [3]: 0.34 ± 0.08 µM
improved growth inhibitory potency ([3]; relative to compound 3b): ~10 fold

IC50 [1, 10]: 112 ± 2.3 nM
SMILES: CC(=O)N[C@H](C(=O)N[C@H](C(=O)NCC(=O)NC(B(O)O)c1ccccc1)[C@@H](C)O)C1CCCC1 (stereo partly shown) [3h]
